Results taken from US9132140B2, “Boronic acid derivatives and therapeutic uses thereof” (Rempex Pharmaceuticals, Inc., priority 2013, dated 2015).
pKi: −log10 of the molar value. Where two headings read alike, the source gives them in different places.

How the values were obtained:
CMY-2 = CMY-2 (Klebsiella pneumoniae, UniProt Q48434); experiment: Inhibition of purified beta-lactamase, nitrocefin cleavage; assay type: biochemical
Method: (§1) Purified enzymes were mixed with various concentrations of inhibitors in reaction buffer and incubated for 10 min at room temperature. Nitrocefin was added and substrate cleavage profiles were recorded at 490 nm every 10 sec for 10 min.

CTX-M-14 = CTX-M-14 (Escherichia coli, UniProt Q9L5C7); experiment: as above; assay type: biochemical
Chain of CTX-M-14 (Q9L5C7 entry or part of it): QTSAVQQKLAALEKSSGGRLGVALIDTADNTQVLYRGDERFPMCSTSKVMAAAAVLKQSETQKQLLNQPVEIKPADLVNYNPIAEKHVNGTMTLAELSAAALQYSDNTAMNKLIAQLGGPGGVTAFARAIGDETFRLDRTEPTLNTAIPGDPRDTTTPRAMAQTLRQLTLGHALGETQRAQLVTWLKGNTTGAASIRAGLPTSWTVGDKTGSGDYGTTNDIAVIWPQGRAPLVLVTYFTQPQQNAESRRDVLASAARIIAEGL
Method: as §1

KPC-2 = KPC-2 (Klebsiella pneumoniae, UniProt Q9F663); experiment: as above; assay type: biochemical; details: read-out: Ki (KPC-2, NCF)
Chain of KPC-2 (Q9F663 25-293, looked up, species assumed): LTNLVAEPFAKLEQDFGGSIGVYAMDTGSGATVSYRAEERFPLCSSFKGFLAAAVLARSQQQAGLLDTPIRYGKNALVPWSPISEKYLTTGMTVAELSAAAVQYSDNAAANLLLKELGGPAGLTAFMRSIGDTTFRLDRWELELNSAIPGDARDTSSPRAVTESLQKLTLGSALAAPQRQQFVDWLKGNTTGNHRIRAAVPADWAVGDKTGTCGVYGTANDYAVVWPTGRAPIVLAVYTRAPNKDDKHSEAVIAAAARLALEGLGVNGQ
Method: as §1

OXA-48 = OXA-48 (Klebsiella pneumoniae, UniProt Q6XEC0); experiment: as above; assay type: biochemical; details: read-out: Ki (OXA-48, NCF)
Chain of OXA-48 (Q6XEC0 23-265, looked up): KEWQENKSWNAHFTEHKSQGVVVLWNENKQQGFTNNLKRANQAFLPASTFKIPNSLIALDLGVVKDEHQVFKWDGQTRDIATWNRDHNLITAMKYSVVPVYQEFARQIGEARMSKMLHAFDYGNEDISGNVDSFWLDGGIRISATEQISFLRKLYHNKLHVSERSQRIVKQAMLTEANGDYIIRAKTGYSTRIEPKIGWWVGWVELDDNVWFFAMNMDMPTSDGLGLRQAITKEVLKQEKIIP
Method: as §1

SHV-12 = SHV-12 (Klebsiella pneumoniae, UniProt P0AD64, E235K/G234S/L31Q); experiment: as above; assay type: biochemical; details: read-out: Ki (SHV-12, NCF)
Chain of SHV-12 (P0AD64 22-286 L31Q/G234S/E235K): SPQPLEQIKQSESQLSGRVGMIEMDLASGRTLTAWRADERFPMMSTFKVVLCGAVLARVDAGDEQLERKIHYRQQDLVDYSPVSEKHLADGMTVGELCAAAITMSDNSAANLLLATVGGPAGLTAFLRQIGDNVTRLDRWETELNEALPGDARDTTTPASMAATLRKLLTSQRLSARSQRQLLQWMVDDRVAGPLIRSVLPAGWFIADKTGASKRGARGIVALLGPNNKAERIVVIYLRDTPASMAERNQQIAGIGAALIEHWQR
Method: as §1

P99/AmpC of ECL = P99/AmpC of ECL (Enterobacter cloacae, UniProt P05364); experiment: biochemical; details: nitrocefin; read-out: Ki (P99/AmpC of ECL, NCF)
Chain of P99/AmpC of ECL (P05364 21-381): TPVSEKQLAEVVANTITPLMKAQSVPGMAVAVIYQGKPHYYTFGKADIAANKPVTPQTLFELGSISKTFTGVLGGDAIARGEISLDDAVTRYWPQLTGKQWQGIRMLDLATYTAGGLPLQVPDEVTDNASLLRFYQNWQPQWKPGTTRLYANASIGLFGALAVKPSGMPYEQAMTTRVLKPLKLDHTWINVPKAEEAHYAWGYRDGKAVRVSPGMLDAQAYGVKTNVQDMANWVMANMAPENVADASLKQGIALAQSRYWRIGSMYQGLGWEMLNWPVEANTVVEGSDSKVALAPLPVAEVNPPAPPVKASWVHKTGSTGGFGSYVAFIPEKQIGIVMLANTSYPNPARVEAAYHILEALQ
Method: as §1

[1] = nitrocefin, read-out: Ki (CMY-2, NCF)

Chain of CMY-2 (Q48434 21-381, species assumed): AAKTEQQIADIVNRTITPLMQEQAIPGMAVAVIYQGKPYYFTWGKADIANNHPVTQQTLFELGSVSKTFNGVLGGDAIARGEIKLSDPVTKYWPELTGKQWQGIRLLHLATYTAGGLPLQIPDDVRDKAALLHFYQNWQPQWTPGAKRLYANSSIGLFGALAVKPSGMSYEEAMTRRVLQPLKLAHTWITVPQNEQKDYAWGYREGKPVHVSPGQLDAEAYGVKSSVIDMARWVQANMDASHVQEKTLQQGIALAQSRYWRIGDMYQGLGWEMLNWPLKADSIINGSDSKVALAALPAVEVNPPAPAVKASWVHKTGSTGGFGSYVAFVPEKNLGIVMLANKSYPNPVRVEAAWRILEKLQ

SMILES	pKi (CMY-2; [1])	pKi (CTX-M-14; nitrocefin, read-out: Ki (CTX-M-14, NCF))	pKi (KPC-2)	pKi (OXA-48)	pKi (CTX-M-14)	pKi (SHV-12)	pKi (P99/AmpC of ECL)	pKi (CMY-2)
O=C(O)[C@H]1/C(=C/CO)O[C@@H]2CC(=O)N21 [Clavulanic acid, reference compound]	< 6.00	> 7.00	< 6.00	< 6.00				
Nc1nnc(S[C@H]2Cc3cccc(C(=O)O)c3OB2O)s1 [Compound 4, (R)-3-(5-amino-1,3,4-thiadiazol-2-ylthio)-2-hydroxy-3,4-dihydro-2H-benzo[e][1,2]oxaborinine-8-carboxylic acid]	> 7.00			> 7.00	> 7.00	> 7.00	> 7.00	
CC(=N)S[C@H]1Cc2cccc(C(=O)O)c2OB1O [Compound 10, (R)-2-hydroxy-3-(1-iminoethylthio)-3,4-dihydro-2H-benzo[e][1,2]oxaborinine-8-carboxylic acid]			6.00 to 7.00					
O=C(O)c1cccc2c1OB(O)[C@@H](Sc1nccs1)C2 [Compound 11, (R)-2-hydroxy-3-(thiazol-2-ylthio)-3,4-dihydro-2H-benzo[e][1,2]oxaborinine-8-carboxylic acid]	> 7.00			> 7.00		> 7.00	> 7.00	
O=C(O)c1cccc2c1OB(O)[C@@H](Sc1c[nH]nn1)C2 [Compound 12, (R)-3-(1H-1,2,3-triazol-4-ylthio)-2-hydroxy-3,4-dihydro-2H-benzo[e][1,2]oxaborinine-8-carboxylic acid]			6.00 to 7.00					
CO[C@H]1Cc2cccc(C(=O)O)c2OB1O [Compound 17, (R)-2-hydroxy-3-methoxy-3,4-dihydro-2H-benzo[e][1,2]oxaborinine-8-carboxylic acid]			> 7.00	> 7.00	> 7.00	> 7.00	> 7.00	
O=C(O)c1cccc2c1OB(O)[C@@H](OC1CNC1)C2 [Compound 18, (R)-3-(azetidin-3-yloxy)-2-hydroxy-3,4-dihydro-2H-benzo[e][1,2]oxaborinine-8-carboxylic acid]			6.00 to 7.00	> 7.00	6.00 to 7.00	> 7.00	6.00 to 7.00	
Nn1cnnc1S[C@H]1Cc2ccc(F)c(C(=O)O)c2OB1O [Compound 20, (R)-3-(4-amino-4H-1,2,4-triazol-3-ylthio)-7-fluoro-2-hydroxy-3,4-dihydro-2H-benzo[e][1,2]oxaborinine-8-carboxylic acid]			6.00 to 7.00	6.00 to 7.00	> 7.00	> 7.00	6.00 to 7.00	
Nc1nnc(S[C@H]2Cc3ccc(F)c(C(=O)O)c3OB2O)s1 [Compound 23, (R)-3-(5-amino-1,3,4-thiadiazol-2-ylthio)-7-fluoro-2-hydroxy-3,4-dihydro-2H-benzo[e][1,2]oxaborinine-8-carboxylic acid]			> 7.00	> 7.00	> 7.00	> 7.00	> 7.00	
Cn1cnnc1S[C@H]1Cc2ccc(F)c(C(=O)O)c2OB1O [Compound 24, (R)-7-fluoro-2-hydroxy-3-(4-methyl-4H-1,2,4-triazol-3-ylthio)-3,4-dihydro-2H-benzo[e][1,2]oxaborinine-8-carboxylic acid]			6.00 to 7.00	> 7.00	> 7.00	> 7.00	6.00 to 7.00	
CSc1ccc2c(c1C(=O)O)OB(O)[C@@H](Sc1nncn1N)C2 [Compound 25, (R)-3-(4-amino-4H-1,2,4-triazol-3-ylthio)-2-hydroxy-7-(methylthio)-3,4-dihydro-2H-benzo[e][1,2]oxaborinine-8-carboxylic acid]			6.00 to 7.00	> 7.00	> 7.00	> 7.00	6.00 to 7.00	
C[C@]1(Cn2ccnn2)[C@H](C(=O)O)N2C(=O)C[C@H]2S1(=O)=O [Tazobactam, reference compound]			< 6.00	6.00 to 7.00				6.00 to 7.00
